# Test results from patent publication US4968696A, “N,N'-bis-L-amino acid-L-cystine-peptide containing amino acid preparations for oral parenteral nutrition” (Pfrimmer + Co. Pharmazeutische Werke Erlangen GmbH + co. KG, priority 1986, dated 1990).
# Where two headings read alike, the source gives them in different places. Where a SMILES comes first, the peptide text is derived from it. Bridges are numbered along the chain shown (N, C = ends). Roman numbers before positions name the chains, in order.
# Tests used:
# Solubility in water = format: physicochemical
# [1] = Sterilization tests (heat sterilization of aqueous peptide solutions, analysed by capillary isotachophoresis and HPLC); format: physicochemical; conditions: heat sterilization (121° C.)
# Method: Starting from a stock solution of the tripeptide of the invention so obtained (2 mmol/1 in tris-buffer) solutions having pH-values of 5.5, 6.5, 7.5 and 8.5 were prepared by addition of 0.1 N HCL or KOH, respectively. Thereafter 0.1 ml each of these solutions were filled into ampoules purified with chromosulfuric acid, met sealed under vacuum and sterilized over 8, 12, 15 or 30 min, respectively.
# Further respective solution of the cystinyl-bis-alanine-tripeptide were prepared and treated analogeously.
# The stock solutions as well as the sterilized samples were analysized by means of capillary-isotachophoreses and HPLC. […] Therefore, said tripeptides are not only suitable for oral preparations, but also and in particular for the preparation of parenteral infusion solutions.
# [2] = In vivo utilization: single injection via vena cava catheter, plasma peptide/amino acid concentrations by RP-HPLC after DANSYL derivatization; parameters: species or system male Wistar-rats; conditions: for tripeptide concentration in plasma: 20 μmol/100 g bw
# Method: For physiological investigation of the in vivo utilization of bis-amino acid cystine-peptides bis-glycyl-L-cystine and bis-L-alanyl-L-cystine were selected as examples and injected into male Wistar-rats in the form of a peptide single injection (50 μmole/100 g bw and 20 μmole/100 g bw respectively, injection volume 0.5-1 ml), by means of a vena cava-catheter within 5 s. The withdrawal of blood (1 ml in herparinized syringes) was 30, 60, 120, 180 and 300 s after application of the peptides. The plasma obtained by centrifugation was subsequently treated with 30% SSA (ratio of sample to SSA 10:1) for precipitation, maintained 1 h at 4° C., and finally centrifuged.
# For determination of the bis-glycyl-L-cystine, mono-glycyl-L-cystine, bis-L-alanyl-L-cystine, mono-L-alanyl-L-cystine peptides as well as of the free amino acids glycine, alanine and cystine the precipitated plasma samples were analysed by high pressure liquid chromatography after pre-column derivatization with 5 dimethylaminonaphthaline-1-sulphonylchloride (DANSYL-Cl). The analytical conditions are summarized below:
# RP-HPLC after DANSYL-Precolumn Derivatization
# Column: Spherisorb ODS 11 3 μm (125×4.6 mm)
# (A) 12.5 mM Na-phosphate-buffer of pH 6.6
# Detection: fluorescence Em 550/Ex 325
# [3] = cited from earlier work
# [4] = 30 s after injection, 50 μmole/100 g bw
# [5] = first measurement (30 s), 20 μmole/100 g bw
structure (smiles),measurement,setting,value
C[C@H](NC(=O)[C@@H](N)CSSC[C@H](N)C(=O)N[C@@H](C)C(=O)O)C(=O)O [L-cystinyl-bis-L-alanine] (I: H-Cys-Ala-OH / II: H-Cys-Ala-OH; disulfide I:1-II:1),solubility in water,Solubility in water,well soluble in water
same,stability upon heat sterilization in aqueous solution,[1],unstable upon heat sterilization
same,time of heat sterilization after which other derivatives are formed,[1],≤ 8 min
"C[C@H](N)C(=O)N[C@@H](CSSC[C@H](NC(=O)[C@H](C)N)C(=O)O)C(=O)O [(ala-cys)2, N,N'-bis-L-alanyl-L-cystine] (I: H-Ala-Cys-OH / II: H-Ala-Cys-OH; disulfide I:2-II:2)",solubility in water,Solubility in water,well soluble in water
same,time after injection within which the tripeptide could be detected in all 6 test animals,[2]; 20 μmole/100 g bw,≤ 2 min
same,time of maximum plasma alanine concentration,[2]; 20 μmole/100 g bw,30 s
same,time of maximum plasma cystine concentration,[2]; 20 μmole/100 g bw,60 s
same,tripeptide concentration in plasma,[2]; 30 s after injection,280 µM
same,concentration of intermediate hydrolysis product ala-(cys)2 relative to the tripeptide,"[2]; 30 s after injection, 20 μmole/100 g bw",about 5 fold
same,detection of tripeptide in plasma at the last sampling,"[2]; 300 s after injection, 20 μmole/100 g bw",could not be detected
same,maximum plasma cystine concentration versus starting concentration,"[2]; after 60 s, 20 μmole/100 g bw",23 times
same,plasma alanine concentration versus starting level,"[2]; after 300 s, 20 μmole/100 g bw",3 times
same,plasma alanine concentration versus starting level,"[2]; at the beginning (30 s), 20 μmole/100 g bw",~7 times
same,level at time molar at 0.05 h,"[2]; male, Wistar, rat, plasma, iv, 20 umole/100 g bw, heading: tripeptide concentration in plasma, 180 s after injection, detected in one sample only, 20 μmole/100 g bw",~20 µM
same,half-life,"[2]; male, Wistar, rat, plasma, iv, 20 μmole/100 g bw, concluded from data, not calculable, read-out: plasma half-life",< 2 min
same,clearance from the plasma after single injection,[2]; rat,rapidly cleared from the plasma
same,stability upon heat sterilization in aqueous solution,[1],remain stable upon heat sterilization
"NCC(=O)N[C@@H](CSSC[C@H](NC(=O)CN)C(=O)O)C(=O)O [(gly-cys)2, N,N'-bis-glycyl-L-cystine] (I: H-Gly-Cys-OH / II: H-Gly-Cys-OH; disulfide I:2-II:2)",tripeptide plasma concentration 5 min after injection relative to the value after 30 s,"[2]; 50 μmole/100 g bw single injection, rat plasma",about 10%
same,tripeptide concentration in plasma,[2]; 30 s after injection,655 µM
same,plasma cystine concentration versus starting concentration,[2]; [4],14 fold
same,plasma glycine concentration versus starting concentration,[2]; [4],12 fold
same,plasma cystine concentration versus starting value,"[2]; 5 min after injection, 50 μmole/100 g bw",about 30 times
same,plasma cystine concentration versus starting point,[2]; [5],10 fold
same,plasma glycine concentration versus starting point,[2]; [5],5 fold
same,half-life,"[2]; male, Wistar, rat, plasma, iv, two compartment model, residual method, n=5, 50 μmole/100 g bw, read-out: calculated half-life (converted)",4 min
same,clearance from the plasma after single injection,[2]; rat,rapidly cleared from the plasma
same,solubility in water (prior art statement),[3],soluble
"CC(=O)N[C@@H](CSSC[C@H](NC(C)=O)C(=O)O)C(=O)O [N,N'-bis-acetylcystine, reference compound]",solubility in water (prior art statement),[3],relatively high solubility in water
